Experimental data taken from US10160738B2, “Neuroactive substituted cyclopent[a]anthracenes as modulators for GABA type-A receptors” (priority 2013, dated 2018).
Where two headings read alike, the source gives them in different places.

Key:
[1] = target: picrotoxin binding site on GABAA receptors; assay: [35S]-TBPS displacement (inhibition of [35S]-TBPS binding); details: non-competitive displacement; duplicate experiments in triplicate; ± SEM
Protocol: The IC50 values for non-competitive displacers of [^35S]-TBPS from the picrotoxin binding site on GABAA receptors are reported in Table 1.
Results presented are from duplicate experiments performed in triplicate. Error limits are calculated as standard error of the mean. Methods used are known in the art (see Jiang, X., et al., Neurosteroid analogues. 9. Conformationally constrained pregnanes: structure-activity studies of 13,24-cyclo-18,21-dinorcholane analogues of the GABA modulatory and anesthetic steroids (3α,5α)- and […]. J. Med. Chem., 46: 5334-48 (2003)—the contents of which are hereby incorporated by reference in their entirety).

[2] = target: T1, rat α1β2γ2L type GABAA receptors expressed in Xenopus laevis oocytes (Rattus norvegicus, UniProt P18508+P62813+P63138, INS375LLRMFSFK); assay: Potentiation of GABA-mediated chloride currents, oocyte electrophysiology; type: cell-based; details: ± SEM; for Oocyte electrophysiology (gating) 10 μM: direct current gated by 10 μM compound in absence of GABA, ratio compound only current/2 μM GABA current; for Oocyte electrophysiology 0.1 μM: ratio of currents in presence/absence of 0.1 μM compound; for Oocyte electrophysiology 0.1 μM / Oocyte electrophysiology 1.0 μM / Oocyte electrophysiology 10 μM: 2 μM GABA, N≥4; for Oocyte electrophysiology 1.0 μM: ratio of currents in presence/absence of 1.0 μM compound; for Oocyte electrophysiology 10 μM: ratio of currents in presence/absence of 10 μM compound
T1 construct: expressed in transfected cells; host or cells: Xenopus laevis oocytes
T1 sequence (P62813 28-455, stated change not applied): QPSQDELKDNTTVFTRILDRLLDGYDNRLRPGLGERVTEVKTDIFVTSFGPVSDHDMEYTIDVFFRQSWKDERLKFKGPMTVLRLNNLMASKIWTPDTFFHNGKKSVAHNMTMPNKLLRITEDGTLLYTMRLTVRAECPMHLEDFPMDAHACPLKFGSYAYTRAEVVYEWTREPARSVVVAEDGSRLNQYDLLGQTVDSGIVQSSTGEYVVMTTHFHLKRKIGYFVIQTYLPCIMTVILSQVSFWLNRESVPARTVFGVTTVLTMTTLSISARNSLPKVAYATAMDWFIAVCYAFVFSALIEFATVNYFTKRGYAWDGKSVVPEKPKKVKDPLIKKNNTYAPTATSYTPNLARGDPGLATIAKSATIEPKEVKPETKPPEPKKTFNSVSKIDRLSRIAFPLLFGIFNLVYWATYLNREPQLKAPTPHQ
T1 sequence (P63138 26-474, stated change not applied): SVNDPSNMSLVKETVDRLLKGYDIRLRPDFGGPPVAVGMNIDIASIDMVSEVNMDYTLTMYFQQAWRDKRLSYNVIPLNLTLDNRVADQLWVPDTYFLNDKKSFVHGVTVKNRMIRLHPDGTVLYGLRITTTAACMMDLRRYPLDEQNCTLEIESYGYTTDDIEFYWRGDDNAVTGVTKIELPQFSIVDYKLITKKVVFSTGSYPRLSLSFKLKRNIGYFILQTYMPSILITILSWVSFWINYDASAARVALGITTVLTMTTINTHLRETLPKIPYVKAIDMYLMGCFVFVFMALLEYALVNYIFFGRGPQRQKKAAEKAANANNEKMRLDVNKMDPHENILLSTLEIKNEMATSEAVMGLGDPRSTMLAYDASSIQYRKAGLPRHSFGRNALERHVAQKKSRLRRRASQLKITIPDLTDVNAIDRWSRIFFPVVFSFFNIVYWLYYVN
T1 sequence (P18508 with tags, fused parts or gaps INS375LLRMFSFK): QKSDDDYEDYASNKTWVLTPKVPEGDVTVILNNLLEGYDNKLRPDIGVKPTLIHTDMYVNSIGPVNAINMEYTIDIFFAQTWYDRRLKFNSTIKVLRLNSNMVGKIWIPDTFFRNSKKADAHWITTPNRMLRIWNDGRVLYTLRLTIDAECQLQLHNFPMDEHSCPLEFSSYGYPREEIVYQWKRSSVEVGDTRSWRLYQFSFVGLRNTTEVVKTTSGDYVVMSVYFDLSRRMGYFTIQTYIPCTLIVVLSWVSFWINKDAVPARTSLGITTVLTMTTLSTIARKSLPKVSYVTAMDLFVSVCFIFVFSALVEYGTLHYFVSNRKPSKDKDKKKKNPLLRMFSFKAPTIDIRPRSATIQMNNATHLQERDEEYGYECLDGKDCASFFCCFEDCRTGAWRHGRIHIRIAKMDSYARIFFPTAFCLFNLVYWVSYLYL
Protocol: The compounds of the present disclosure were evaluated for the ability to potentiate chloride currents mediated by 2 μM GABA at rat α1β2γ2L type GABAA receptors expressed in Xenopus laevis oocytes and the results are shown in Table 2.
The GABA concentration used for the control response was 2 μM. Each compound was evaluated on at least four different oocytes at the concentrations indicated, and the results reported are the ratio of currents measured in the presence/absence of added compound. Gating represents direct current gated by 10 μM compound in the absence of GABA, and this current is reported as the ratio of compound only current/2 μM GABA current. Error limits are calculated as standard error of the mean (N≥4). Methods used are known in the art (see Jiang, X., et al.).

tadpole = assay: Tadpole loss of righting reflex (LRR) and loss of swimming reflex (LSR); type: in vivo; details: ± SEM
Protocol: Table 3 discloses the anesthetic effects of the compounds of the present disclosure. In particular, the anesthetic effect of the compounds of the present disclosure on Loss of Righting Reflex (LRR) and Loss of Swimming Reflex (LSR).
Methods used are known in the art (see Jiang, X., et al.). Error limits are calculated as standard error of the mean (N=10 or more animals at each of five or more different concentrations).

[3] = loss of righting reflex, read-out: Tadpole LRR EC50
[4] = loss of swimming reflex, read-out: Tadpole LSR EC50

With `C[C@@]12CC[C@H]3C[C@H]4C[C@H](O)CC[C@@H]4C[C@@H]3[C@H]1CC=C2C#N` [MQ-81, (3aR,5aS,6aS,8R,10aR,11aS,11bR)-8-Hydroxy-3a-methyl-3a,4,5,5a,6,6a,7,8,9,10,10a,11,11a,11b-Tetradecahydro-1H-cyclopent[a]anthracene-3-carbonitrile] the IC50 [1] was 0.174 ± 0.014 µM, the “Oocyte electrophysiology (gating) 10 μM” value [2] was 0.09 ± 0.01 and the “Oocyte electrophysiology 0.1 μM” value [2] was 1.37 ± 0.14. The “Oocyte electrophysiology 1.0 μM” value [2] was 5.69 ± 0.17, the “Oocyte electrophysiology 10 μM” value [2] was 18.39 ± 0.70 and the EC50 (tadpole; [3]) was 0.77 ± 0.04 µM. For the same compound, the EC50 (tadpole; [4]) was 1.73 ± 0.04 µM and the melting point was 165 to 167 °C.

For `C[C@]12CC[C@@H]3C[C@@H]4C[C@@H](O)CC[C@H]4C[C@H]3[C@@H]1CC[C@@H]2C#N` [MQ-77, (3S,3aS,5aR,6aR,8S,10aS,11aR,11bS)-Hexadecahydro-8-hydroxy-3a-methyl-cyclopent[a]anthracene-3-carbonitrile], the IC50 [1] was 0.4 ± 0.118 µM, the “Oocyte electrophysiology (gating) 10 μM” value [2] was 0.02 ± 0.09 and the “Oocyte electrophysiology 0.1 μM” value [2] was 1.03 ± 0.10. For the same compound, the “Oocyte electrophysiology 1.0 μM” value [2] was 3.65 ± 0.39, the “Oocyte electrophysiology 10 μM” value [2] was 14.80 ± 1.53 and the EC50 (tadpole; [3]) was 0.59 ± 0.07 µM. It also gave an EC50 (tadpole; [4]) of 1.73 ± 0.04 µM.

For `C[C@@]12CC[C@H]3C[C@H]4C[C@H](O)CC[C@@H]4C[C@@H]3[C@H]1CCC2=O` [MQ-64, (3aR,5aS,6aS,8R,10aR,11aS,11bR)-Hexadecahydro-8-hydroxy-3a-methyl-3H-cyclopent[a]anthracen-3-one], the IC50 [1] was 0.346 ± 0.033 µM, the “Oocyte electrophysiology (gating) 10 μM” value [2] was 0.04 ± 0.03 and the “Oocyte electrophysiology 0.1 μM” value [2] was 0.98 ± 0.02. For the same compound, the “Oocyte electrophysiology 1.0 μM” value [2] was 2.21 ± 0.17, the “Oocyte electrophysiology 10 μM” value [2] was 8.81 ± 1.87 and the EC50 (tadpole; [3]) was 3.08 ± 0.01 µM. For the same compound, the “Tadpole LSR EC50” value (tadpole; loss of swimming reflex) was “None” and the melting point was 152 to 154 °C.

With `C[C@]12CC[C@@H]3C[C@@H]4C[C@@H](O)CC[C@H]4C[C@H]3[C@@H]1CC=C2C#N` [MQ-76, (3aS,5aR,6aR,8S,10aS,11aR,11bS)-8-Hydroxy-3a-methyl-3a,4,5,5a,6,6a,7,8,9,10,10a,11,11a,11b-Tetradecahydro-1H-cyclopent[a]anthracene-3-carbonitrile] the IC50 [1] was 0.574 ± 0.142 µM, the “Oocyte electrophysiology (gating) 10 μM” value [2] was 0.31 ± 0.30 and the “Oocyte electrophysiology 0.1 μM” value [2] was 0.95 ± 0.20. For the same compound, the “Oocyte electrophysiology 1.0 μM” value [2] was 2.08 ± 0.16, the “Oocyte electrophysiology 10 μM” value [2] was 9.43 ± 0.77 and the EC50 (tadpole; [3]) was 0.39 ± 0.01 µM. The EC50 (tadpole; [4]) was 1.73 ± 0.03 µM and the melting point was 164 to 166 °C.

With `C[C@]12CC[C@@H]3C[C@@H]4C[C@@H](O)CC[C@H]4C[C@H]3[C@@H]1CCC2=O` [MQ-74, (3aS,5aR,6aR,8S,10aS,11aR,11bS)-Hexadecahydro-8-hydroxy-3a-methyl-cyclopent[a]anthracen-3-one] the IC50 [1] was 1.19 µM, the “Oocyte electrophysiology (gating) 10 μM” value [2] was −0.01 ± 0.04 and the “Oocyte electrophysiology 0.1 μM” value [2] was 0.80 ± 0.06. For the same compound, the “Oocyte electrophysiology 1.0 μM” value [2] was 1.00 ± 0.0, the “Oocyte electrophysiology 10 μM” value [2] was 3.88 ± 0.56 and the EC50 (tadpole; [3]) was 3.22 ± 0.03 µM. It also gave an EC50 (tadpole; [4]) greater than 10 µM and a melting point of 152 to 154 °C.

With `C[C@@]12CC[C@H]3C[C@H]4C[C@H](O)CC[C@@H]4C[C@@H]3[C@H]1CC(=O)C2` [MQ-82, (3aS,5aS,6aS,8R,10aR,11aS,11bR)-8-Hydroxy-3a-methyl-hexadecahydro-2H-cyclopenta[a]anthracen-2-one] the IC50 [1] was 2.68 µM, the “Oocyte electrophysiology (gating) 10 μM” value [2] was 0.19 ± 0.17 and the “Oocyte electrophysiology 0.1 μM” value [2] was 0.80 ± 0.04. For the same compound, the “Oocyte electrophysiology 1.0 μM” value [2] was 0.83 ± 0.06, the “Oocyte electrophysiology 10 μM” value [2] was 2.43 ± 0.34 and the EC50 (tadpole; [3]) was 3.11 ± 0.01 µM. For the same compound, the EC50 (tadpole; [4]) was 7.93 µM and the melting point was 145 to 147 °C.

With `C[C@@]12CC[C@H]3C[C@H]4C[C@H](O)CC[C@@H]4C[C@@H]3[C@H]1CC[C@]21CO1` [MQ-65, (2′R,3R,3aR,5aS,6aS,8R,10aR,11aS,11bR)-Hexadecahydro-3a-methyl-spiro[3H-cyclopent[a]anthracene-3,2′-oxiran]-8-ol] the IC50 [1] was 0.251 ± 0.066 µM, the “Oocyte electrophysiology (gating) 10 μM” value [2] was 0.02 ± 0.0 and the “Oocyte electrophysiology 0.1 μM” value [2] was 1.27 ± 0.04. The “Oocyte electrophysiology 1.0 μM” value [2] was 2.94 ± 0.28, the “Oocyte electrophysiology 10 μM” value [2] was 6.86 ± 1.34 and the EC50 (tadpole; [3]) was 2.09 ± 0.12 µM. The EC50 (tadpole; [4]) was 5.48 ± 0.02 µM and the melting point was 143 to 145 °C.

With `C[C@]12CC[C@@H]3C[C@@H]4C[C@@H](O)CC[C@H]4C[C@H]3[C@@H]1CC[C@@]21CO1` [MQ-75, (2′S,3S,3aS,5aR,6aR,8S,10aS,11aR,11bS)-Hexadecahydro-3a-methyl-spiro[3H-cyclopent[a]anthracene-3,2′-oxiran]-8-ol] the IC50 [1] was 0.226 ± 0.002 µM, the “Oocyte electrophysiology (gating) 10 μM” value [2] was 0.13 ± 0.04 and the “Oocyte electrophysiology 0.1 μM” value [2] was 1.36 ± 0.03. The “Oocyte electrophysiology 1.0 μM” value [2] was 7.67 ± 0.71, the “Oocyte electrophysiology 10 μM” value [2] was 18.86 ± 1.99 and the EC50 (tadpole; [3]) was 0.26 ± 0.04 µM. For the same compound, the EC50 (tadpole; [4]) was 0.95 µM and the melting point was 140 to 142 °C.
